From US10150760B2, “Compounds for use in preparing heterocyclic triazole agonists of the APJ receptor” (AMGEN INC., priority 2016, dated 2018)

Molecular target: human APJ receptor (Homo sapiens (Human), UniProt P35414)
Assay: [35S]GTPγS binding assay on membranes from CHO cells stably expressing human APJ receptor
Type: biochemical
Conditions: read-out: Activity hAPJ SPA EC50 IP
How it was run: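 Agonist-driven [35S]GTPγS (0.2 nM) binding was measured over 90 min at room temperature on human APJ-expressing CHO membranes with bead capture, in buffer containing 3 μM GDP, 200 mM NaCl and 5 mM MgCl2 (pH 7.5). Excess unlabelled GTPγS (100 μM) gave nonspecific signal; EC50 from non-linear fits.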

Chain of human APJ receptor (P35414 whole entry): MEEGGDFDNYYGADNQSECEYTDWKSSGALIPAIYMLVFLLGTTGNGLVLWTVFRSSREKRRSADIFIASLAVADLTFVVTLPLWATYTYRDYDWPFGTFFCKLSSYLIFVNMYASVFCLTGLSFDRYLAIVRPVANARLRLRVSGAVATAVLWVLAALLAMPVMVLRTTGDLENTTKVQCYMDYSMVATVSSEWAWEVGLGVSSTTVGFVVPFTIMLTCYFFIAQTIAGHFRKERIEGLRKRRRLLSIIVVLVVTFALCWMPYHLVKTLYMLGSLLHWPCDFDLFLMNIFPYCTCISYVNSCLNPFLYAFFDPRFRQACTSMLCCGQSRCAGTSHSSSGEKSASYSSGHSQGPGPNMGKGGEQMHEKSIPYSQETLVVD

Question: For COc1cccc(OC)c1-n1c(NS(=O)(=O)[C@@H](C)[C@@H](OC(C)C)c2ncc(C)cn2)nnc1[C@H]1CCC(=O)N1C (single isomer, unassigned) [Example 418.0, (1S,2S)-N-(4-(2,6-dimethoxyphenyl)-5-((2R)-1-methyl-5-oxo-2-pyrrolidinyl)-4H-1,2,4-triazol-3-yl)-1-(5-methyl-2-pyrimidinyl)-1-(2-propanyloxy)-2-propanesulfonamide or (1S,2S)-N-(4-(2,6-dimethoxyphenyl)-5-((2S)-1-methyl-5-oxo-2-pyrrolidinyl)-4H-1,2,4-triazol-3-yl)-1-(5-methyl-2-pyrimidinyl)-1-(2-propanyloxy)-2-propanesulfonamide], which EC50 is on record?
Answer: The EC50 was 350 nM.

Question: How did the EC50 turn out when COc1cccc(OC)c1-n1c(NS(=O)(=O)[C@@H](C)[C@H](C)c2ncc(Cl)cn2)nnc1[C@H]1CCC(=O)N1C (single isomer, unassigned) [Example 419.0, (2S,3R)-3-(5-chloro-2-pyrimidinyl)-N-(4-(2,6-dimethoxyphenyl)-5-((2R)-1-methyl-5-oxo-2-pyrrolidinyl)-4H-1,2,4-triazol-3-yl)-2-butanesulfonamide or ((2S,3R)-3-(5-chloro-2-pyrimidinyl)-N-(4-(2,6-dimethoxyphenyl)-5-((2S)-1-methyl-5-oxo-2-pyrrolidinyl)-4H-1,2,4-triazol-3-yl)-2-butanesulfonamide] was run?
Answer: Its EC50 is 3430 nM.

Question: How did the EC50 turn out when COc1cccc(OC)c1-n1c(NS(=O)(=O)CCc2ncc(Cl)cn2)nnc1[C@@H]1COCCO1 (single isomer, unassigned) [Example 424.0, 2-(5-chloro-2-pyrimidinyl)-N-(4-(2,6-dimethoxyphenyl)-5-((2R)-1,4-dioxan-2-yl)-4H-1,2,4-triazol-3-yl)ethanesulfonamide or 2-(5-chloro-2-pyrimidinyl)-N-(4-(2,6-dimethoxyphenyl)-5-((2S)-1,4-dioxan-2-yl)-4H-1,2,4-triazol-3-yl)ethanesulfonamide] was run?
Answer: Its EC50 is 52 nM.

Question: With COc1cccc(OC)c1-n1c(NS(=O)(=O)CCc2ncc(Cl)cn2)nnc1[C@@H]1COCCO1 (single isomer, unassigned) [Example 425.0, 2-(5-chloro-2-pyrimidinyl)-N-(4-(2,6-dimethoxyphenyl)-5-((2R)-1,4-dioxan-2-yl)-4H-1,2,4-triazol-3-yl)ethanesulfonamide or 2-(5-chloro-2-pyrimidinyl)-N-(4-(2,6-dimethoxyphenyl)-5-((2S)-1,4-dioxan-2-yl)-4H-1,2,4-triazol-3-yl)ethanesulfonamide] as the compound, how does the EC50 read?
Answer: The EC50 was 130 nM.

Question: COc1cccc(OC)c1-n1c(NS(=O)(=O)[C@@H](C)[C@H](C)c2ncc(Cl)cn2)nnc1[C@H]1CCO1 (single isomer, unassigned) [Example 445.0, (2S,3R)-3-(5-chloropyrimidin-2-yl)-N-(4-(2,6-dimethoxyphenyl)-5-((R)-oxetan-2-yl)-4H-1,2,4-triazol-3-yl)butane-2-sulfonamide or (2S,3R)-3-(5-chloropyrimidin-2-yl)-N-(4-(2,6-dimethoxyphenyl)-5-((S)-oxetan-2-yl)-4H-1,2,4-triazol-3-yl)butane-2-sulfonamide] was tested. Which EC50 did it give?
Answer: The EC50 was 30 nM.

Question: How did the EC50 turn out when COc1cccc(OC)c1-n1c(NS(=O)(=O)[C@@H](C)[C@H](C)c2ncc(Cl)cn2)nnc1[C@@H]1CCN(C(=O)OC(C)(C)C)C1 (stereo in doubt) [Example 41.0, tert-butyl (3R)-3-(5-((((1S,2R)-2-(5-chloro-2-pyrimidinyl)-1-methylpropyl)sulfonyl)amino)-4-(2,6-dimethoxyphenyl)-4H-1,2,4-triazol-3-yl)-1-pyrrolidinecarboxylate or tert-butyl (3S)-3-(5-((((1S,2R)-2-(5-chloro-2-pyrimidinyl)-1-methylpropyl)sulfonyl)amino)-4-(2,6-dimethoxyphenyl)-4H-1,2,4-triazol-3-yl)-1-pyrrolidinecarboxylate] was run?
Answer: The EC50 was 820 nM.

Question: For COc1cccc(OC)c1-n1c(NS(=O)(=O)[C@@H](C)[C@H](C)c2ncc(Cl)cn2)nnc1[C@H]1CCN(C(=O)OC(C)(C)C)C1 (stereo in doubt) [Example 42.0, tert-butyl (3S)-3-(5-((((1S,2R)-2-(5-chloro-2-pyrimidinyl)-1-methylpropypsulfonyl)amino)-4-(2,6-dimethoxyphenyl)-4H-1,2,4-triazol-3-yl)-1-pyrrolidinecarboxylate or tert-butyl (3R)-3-(5-((((1S,2R)-2-(5-chloro-2-pyrimidinyl)-1-methylpropypsulfonyl)amino)-4-(2,6-dimethoxyphenyl)-4H-1,2,4-triazol-3-yl)-1-pyrrolidinecarboxylate], which EC50 is on record?
Answer: Its EC50 is 210 nM.

Question: With COc1cccc(OC)c1-n1c(NS(=O)(=O)[C@H](C)Cc2ncc(F)cn2)nnc1[C@H]1CCOC1 [Example 6.0] as the compound, how does the EC50 read?
Answer: Its EC50 is 400 nM.

Question: With Cc1cnc([C@@H](C)[C@H](C)S(=O)(=O)Nc2nnc([C@@H]3CCCO3)n2-c2c(F)cccc2F)nc1 [Example 18.0, (2S,3R)-N-(4-(2,6-difluorophenyl)-5-((2S)-tetrahydro-2-furanyl)-4H-1,2,4-triazol-3-yl)-3-(5-methyl-2-pyrimidinyl)-2-butanesulfonamide] as the compound, how does the EC50 read?
Answer: Its EC50 is 120 nM.

Question: With Cc1cnc([C@@H](C)[C@H](C)S(=O)(=O)Nc2nnc([C@H]3CCCO3)n2-c2c(F)cccc2F)nc1 [Example 19.0, (2S,3R)-N-(4-(2,6-difluorophenyl)-5-((2R)-tetrahydro-2-furanyl)-4H-1,2,4-triazol-3-yl)-3-(5-methyl-2-pyrimidinyl)-2-butanesulfonamide] as the compound, how does the EC50 read?
Answer: The EC50 was 60 nM.

Question: For Cc1cnc([C@@H](C)[C@H](C)S(=O)(=O)Nc2nnc([C@@H]3CCCO3)n2-c2c(F)cncc2F)nc1 [Example 25.0, (2S,3R)-N-(4-(3,5-difluoro-4-pyridinyl)-5-((2S)-tetrahydro-2-furanyl)-4H-1,2,4-triazol-3-yl)-3-(5-methyl-2-pyrimidinyl)-2-butanesulfonamide], which EC50 is on record?
Answer: The EC50 was 130 nM.

Question: How did the EC50 turn out when Cc1cnc([C@@H](C)[C@H](C)S(=O)(=O)Nc2nnc([C@H]3CCCO3)n2-c2c(F)cncc2F)nc1 [Example 26.0, (2S,3R)-N-(4-(3,5-difluoro-4-pyridinyl)-5-((2R)-tetrahydro-2-furanyl)-4H-1,2,4-triazol-3-yl)-3-(5-methyl-2-pyrimidinyl)-2-butanesulfonamide] was run?
Answer: Its EC50 is 870 nM.

Question: COc1cccc(OC)c1-n1c(NS(=O)(=O)[C@@H](C)[C@H](C)c2ncc(Cl)cn2)nnc1C1COC1 [Example 36.0, (2S,3R)-3-(5-chloro-2-pyrimidinyl)-N-(4-(2,6-dimethoxyphenyl)-5-(3-oxetanyl)-4H-1,2,4-triazol-3-yl)-2-butanesulfonamide] was tested. Which EC50 did it give?
Answer: Its EC50 is 140 nM.

Question: How did the EC50 turn out when COc1cccc(OC)c1-n1c(NS(=O)(=O)CCc2ccc(F)cc2C#N)nnc1[C@H]1CCC(=O)N1 [Example 43.0, 2-(2-Cyano-4-fluorophenyl)-N-(4-(2,6-dimethoxyphenyl)-5-((2R)-5-oxo-2-pyrrolidinyl)-4H-1,2,4-triazol-3-yl)ethanesulfonamide] was run?
Answer: Its EC50 is 1190 nM.

Question: Which EC50 does the source give for COc1cccc(OC)c1-n1c(NS(=O)(=O)CCc2ccc(F)cc2C#N)nnc1[C@@H]1CCC(=O)N1 [Example 44.0, 2-(2-Cyano-4-fluorophenyl)-N-(4-(2,6-dimethoxyphenyl)-5-((2S)-5-oxo-2-pyrrolidinyl)-4H-1,2,4-triazol-3-yl)ethanesulfonamide] here?
Answer: The EC50 was 430 nM.

Question: COc1cccc(OC)c1-n1c(NS(=O)(=O)[C@@H](C)[C@H](OC)c2ncc(Cl)cn2)nnc1C1CCOCC1 [Example 103.0, (1R,2S)-1-(5-chloropyrimidin-2-yl)-N-(4-(2,6-dimethoxyphenyl)-5-(tetrahydro-2H-pyran-4-yl)-4H-1,2,4-triazol-3-yl)-1-methoxypropane-2-sulfonamide] was tested. Which EC50 did it give?
Answer: Its EC50 is 45 nM.

Question: How did the EC50 turn out when COc1ccccc1-n1c(NS(=O)(=O)[C@@H](C)[C@H](OC)c2ncc(Cl)cn2)nnc1[C@@H]1CCCO1 [Example 240.0, (1R,2S)-1-(5-chloro-2-pyrimidinyl)-1-methoxy-N-(4-(2-methoxyphenyl)-5-((2S)-tetrahydro-2-furany1)-4H-1,2,4-triazol-3-y1)-2-propanesulfonamide] was run?
Answer: The EC50 was 1.3 nM.

Question: With CCc1ccccc1-n1c(NS(=O)(=O)[C@@H](C)[C@H](OC)c2ncc(Cl)cn2)nnc1[C@@H]1CCCO1 [Example 241.0, (1R,2S)-1-(5-chloro-2-pyrimidinyl)-N-(4-(2-ethylphenyl)-5-((2S)-tetrahydro-2-furanyl)-4H-1,2,4-triazol-3-y1)-1-methoxy-2-propanesulfonamide] as the compound, how does the EC50 read?
Answer: Its EC50 is 1.4 nM.

Question: Which EC50 does the source give for CO[C@H](c1ncc(Cl)cn1)[C@H](C)S(=O)(=O)Nc1nnc([C@@H]2CCCO2)n1-c1ccccc1C [Example 242.0, (1R,2S)-1-(5-chloro-2-pyrimidinyl)-1-methoxy-N-(4-(2-methylphenyl)-5-((2S)-tetrahydro-2-furanyl)-4H-1,2,4-triazol-3-yl)-2-propanesulfonamide] here?
Answer: Its EC50 is 8.7 nM.

Question: With CO[C@H](c1ncc(Cl)cn1)[C@H](C)S(=O)(=O)Nc1nnc([C@@H]2CCCO2)n1-c1ccccc1Cl [Example 243.0, (1R,2S)-N-(4-(2-chlorophenyl)-5-((2S)-tetrahydro-2-furanyl)-4H-1,2,4-triazol-3-yl)-1-(5-chloro-2-pyrimidinyl)-1-methoxy-2-propanesulfonamide] as the compound, how does the EC50 read?
Answer: Its EC50 is 5.6 nM.

Question: With CO[C@H](c1ncc(Cl)cn1)[C@H](C)S(=O)(=O)Nc1nnc([C@@H]2CCCO2)n1-c1ccccc1F [Example 244.0, (1R,2S)-1-(5-chloro-2-pyrimidinyl)-N-(4-(2-fluorophenyl)-5-((2S)-tetrahydro-2-furanyl)-4H-1,2,4-triazol-3-yl)-1-methoxy-2-propanesulfonamide] as the compound, how does the EC50 read?
Answer: The EC50 was 21 nM.

Question: How did the EC50 turn out when COCC(COC)n1c(NS(=O)(=O)[C@@H](C)[C@H](OC)c2ncc(Cl)cn2)nnc1[C@H]1CCCO1 [Example 330.0, (1R,2S)-1-(5-chloro-2-pyrimidinyl)-N-(4-(1,3-dimethoxy-2-propanyl)-5-((2R)-tetrahydro-2-furanyl)-4H-1,2,4-triazol-3-yl)-1-methoxy-2-propanesulfonamide] was run?
Answer: The EC50 was 160 nM.

Question: How did the EC50 turn out when COCC(COC)n1c(NS(=O)(=O)[C@@H](C)[C@H](OC)c2ncc(Cl)cn2)nnc1[C@@H]1CCCO1 [Example 332.0, (1R,2S)-1-(5-chloro-2-pyrimidinyl)-N-(4-(1,3-dimethoxy-2-propanyl)-5-((2S)-tetrahydro-2-furanyl)-4H-1,2,4-triazol-3-yl)-1-methoxy-2-propanesulfonamide] was run?
Answer: The EC50 was 14 nM.
